{"source": "ChEMBL document CHEMBL1201862", "about": "“PubChem BioAssay data set” (2004)", "key": {"[1]": {"test": "NIH-3T3 fibroblast cytotoxicity, dose response, cytotoxicity control, cell-based, fluorescence, Alamar Blue, secondary assay (AID 2327);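 further: NIH-3T3 mouse fibroblasts cultured with fluconazole at 8 µg/mL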", "assay_type": "functional"}, "[2]": {"test": "C. albicans growth with fluconazole, confirmation, fluorescence, retest (AID 2467)", "assay_type": "functional, cell-based"}, "Estrogen receptor beta": {"target": "Estrogen receptor beta (Homo sapiens, UniProt Q92731)", "sequence (Q92731 whole entry)": "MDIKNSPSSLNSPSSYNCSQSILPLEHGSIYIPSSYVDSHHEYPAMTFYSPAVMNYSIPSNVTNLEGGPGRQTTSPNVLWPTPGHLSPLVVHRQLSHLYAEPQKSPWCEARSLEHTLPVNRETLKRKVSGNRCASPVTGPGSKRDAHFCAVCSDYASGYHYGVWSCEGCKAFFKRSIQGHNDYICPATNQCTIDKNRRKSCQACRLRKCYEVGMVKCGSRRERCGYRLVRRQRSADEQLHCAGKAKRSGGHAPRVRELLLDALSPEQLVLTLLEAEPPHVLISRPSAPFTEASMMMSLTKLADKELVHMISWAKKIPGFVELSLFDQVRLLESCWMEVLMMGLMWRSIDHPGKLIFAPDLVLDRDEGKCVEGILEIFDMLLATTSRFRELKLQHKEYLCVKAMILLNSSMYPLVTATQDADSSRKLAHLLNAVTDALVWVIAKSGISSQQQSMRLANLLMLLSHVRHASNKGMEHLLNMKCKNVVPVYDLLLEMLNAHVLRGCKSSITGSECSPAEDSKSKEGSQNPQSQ", "test": "ERβ–SRC-3 coactivator interaction inhibitors, confirmation, orthogonal assay, biochemical, ELISA, streptavidin-HRP readout (AID 1060)"}, "Vero": {"system": "Vero", "test": "host cell cytotoxicity of antiviral hits, dose response, cytotoxicity control for West Nile virus antiviral project, secondary assay (AID 1650)", "assay_type": "functional", "details": "Chlorocebus sabaeus"}, "[3]": {"system": "Streptococcus sp. 'group A'", "test": "growth inhibition of control SK(-) GAS strain, dose response, counter-screen for streptokinase expression inhibitor project, luminescence, kanamycin, BacTiterGlo, confirmation (AID 1900)", "assay_type": "functional, organism-based"}, "Streptokinase A": {"target": "T1, Streptokinase A (Streptococcus pyogenes serotype M1, UniProt P10520)", "T1 sequence (P10520 whole entry)": "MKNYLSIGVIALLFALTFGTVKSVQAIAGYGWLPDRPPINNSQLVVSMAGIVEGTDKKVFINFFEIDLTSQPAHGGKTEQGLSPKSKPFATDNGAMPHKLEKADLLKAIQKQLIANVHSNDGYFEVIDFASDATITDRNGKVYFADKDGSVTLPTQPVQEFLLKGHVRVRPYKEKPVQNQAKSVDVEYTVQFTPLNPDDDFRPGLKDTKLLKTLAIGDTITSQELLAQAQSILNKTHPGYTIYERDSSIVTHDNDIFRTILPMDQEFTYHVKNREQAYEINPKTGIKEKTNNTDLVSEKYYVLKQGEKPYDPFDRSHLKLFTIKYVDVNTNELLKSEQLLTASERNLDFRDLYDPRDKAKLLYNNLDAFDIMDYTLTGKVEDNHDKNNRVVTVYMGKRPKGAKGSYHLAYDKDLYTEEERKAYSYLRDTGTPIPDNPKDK", "test": "S. pyogenes streptokinase expression inhibitors, potency, dose response, plasminogen activation absorbance, OD405 (AID 1914);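 further: secreted streptokinase activity via plasminogen activation per viability signal from cell pellet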", "assay_type": "functional, Streptococcus pyogenes M1 GAS"}, "[4]": {"test": "Luminescence-based counterscreen assay for KLF5 inhibitors: dose response cell-based high throughput screening assay to identify cytotoxic compounds using the IEC-6 intestinal epithelial cell line. [Related pubchem assays: 1700 (Primary screen.), 1834 (Confirmation screen.), 1858 (Summary AID.), 1905 (Counterscreen.)]", "assay_type": "functional"}, "Streptococcus": {"system": "Streptococcus", "test": "Group A Streptococcus viability loss, dose response, counter-screen for streptokinase expression inhibitor project, luminescence, BacTiterGlo (AID 1915);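 further: potency for reduction of bacterial viability or growth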", "assay_type": "functional, organism-based"}, "[5]": {"test": "A549 cell cytotoxicity, dose response, cytotoxicity control, plate reader, cherry-pick, antagonist series (AID 743412)", "assay_type": "functional, cell-based"}, "[6]": {"test": "HepG2 cell cytotoxicity, dose response, cytotoxicity control, plate reader, cherry-pick, antagonist series (AID 743416)", "assay_type": "functional, cell-based"}, "[7]": {"test": "LGR2 antagonists, dose response, cell-based, HEK293, CRE-luciferase reporter, cherry pick, set 2 (AID 743343);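 further: transfected cells were stimulated with diluted bursicon conditioned medium after compound addition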", "assay_type": "functional"}, "[8]": {"test": "MC4R antagonists, dose response, counter-screen for LGR2 antagonist project, cell-based, plate reader, cherry pick (AID 743444);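 further: transfected HEK 293 cells stimulated with alpha-MSH peptide; potency of inhibitors of the alpha-MSH evoked signal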", "assay_type": "functional"}, "[9]": {"test": "HEK293 cell cytotoxicity, dose response, cytotoxicity control, plate reader, cherry-picked samples (AID 743446)", "assay_type": "functional, cell-based"}, "Ephrin type-A receptor 4": {"target": "Ephrin type-A receptor 4 (Mus musculus, UniProt Q03137)", "sequence (Q03137 whole entry)": "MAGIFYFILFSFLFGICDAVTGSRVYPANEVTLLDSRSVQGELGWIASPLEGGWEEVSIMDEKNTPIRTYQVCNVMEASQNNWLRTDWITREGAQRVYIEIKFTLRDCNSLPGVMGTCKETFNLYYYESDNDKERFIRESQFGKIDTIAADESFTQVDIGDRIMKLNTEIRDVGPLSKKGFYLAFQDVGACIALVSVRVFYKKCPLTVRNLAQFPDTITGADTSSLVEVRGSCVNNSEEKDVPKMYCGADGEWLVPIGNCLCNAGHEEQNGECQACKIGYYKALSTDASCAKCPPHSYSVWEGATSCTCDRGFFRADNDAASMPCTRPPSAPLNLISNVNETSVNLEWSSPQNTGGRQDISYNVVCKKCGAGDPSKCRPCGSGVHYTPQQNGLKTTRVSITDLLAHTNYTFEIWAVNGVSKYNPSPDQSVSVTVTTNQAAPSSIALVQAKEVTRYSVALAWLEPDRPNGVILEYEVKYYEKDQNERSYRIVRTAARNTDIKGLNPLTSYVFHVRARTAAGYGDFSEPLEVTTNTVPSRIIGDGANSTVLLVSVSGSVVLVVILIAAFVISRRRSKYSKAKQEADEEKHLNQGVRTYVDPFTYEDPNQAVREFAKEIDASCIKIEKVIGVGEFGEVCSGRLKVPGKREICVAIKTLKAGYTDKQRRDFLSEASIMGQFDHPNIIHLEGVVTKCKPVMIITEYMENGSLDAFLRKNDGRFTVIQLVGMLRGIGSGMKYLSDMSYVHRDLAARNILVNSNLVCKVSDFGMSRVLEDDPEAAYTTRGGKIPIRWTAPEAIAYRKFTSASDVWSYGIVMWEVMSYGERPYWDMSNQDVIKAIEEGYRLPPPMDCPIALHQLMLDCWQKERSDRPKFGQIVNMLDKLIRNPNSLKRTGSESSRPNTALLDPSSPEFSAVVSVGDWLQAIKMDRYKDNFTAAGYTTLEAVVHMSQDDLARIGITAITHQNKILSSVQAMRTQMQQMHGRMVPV", "test": "inhibitors of EphA4 binding to KYL peptide, primary screen, biochemical, colorimetric, mouse EphA4 (AID 689)", "assay_type": "functional"}, "[10]": {"target": "Disintegrin and metalloproteinase domain-containing protein 17 (Homo sapiens, UniProt P78536)", "sequence (P78536 whole entry, the tested form may be a part)": "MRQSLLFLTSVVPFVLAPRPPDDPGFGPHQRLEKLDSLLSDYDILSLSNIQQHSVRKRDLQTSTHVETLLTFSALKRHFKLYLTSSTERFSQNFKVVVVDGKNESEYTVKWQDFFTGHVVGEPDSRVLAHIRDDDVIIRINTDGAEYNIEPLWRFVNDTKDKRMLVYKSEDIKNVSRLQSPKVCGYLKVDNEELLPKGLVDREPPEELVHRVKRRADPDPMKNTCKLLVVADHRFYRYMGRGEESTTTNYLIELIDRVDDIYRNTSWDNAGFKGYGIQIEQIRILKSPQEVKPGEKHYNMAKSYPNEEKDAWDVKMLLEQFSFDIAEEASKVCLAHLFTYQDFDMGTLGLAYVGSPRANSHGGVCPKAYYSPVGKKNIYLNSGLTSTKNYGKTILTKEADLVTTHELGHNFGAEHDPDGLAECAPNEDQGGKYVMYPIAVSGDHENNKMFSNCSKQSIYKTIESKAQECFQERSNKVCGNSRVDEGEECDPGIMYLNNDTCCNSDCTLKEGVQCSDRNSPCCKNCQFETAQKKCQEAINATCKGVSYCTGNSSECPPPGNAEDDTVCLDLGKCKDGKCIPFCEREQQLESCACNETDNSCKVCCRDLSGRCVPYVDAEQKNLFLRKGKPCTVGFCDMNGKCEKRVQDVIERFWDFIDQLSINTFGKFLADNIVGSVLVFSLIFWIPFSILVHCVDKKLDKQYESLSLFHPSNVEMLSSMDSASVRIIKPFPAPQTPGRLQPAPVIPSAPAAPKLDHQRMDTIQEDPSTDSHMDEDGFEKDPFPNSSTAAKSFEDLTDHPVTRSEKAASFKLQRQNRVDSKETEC", "test": "exosite inhibitors of ADAM17, dose response, biochemical (AID 743260)"}, "[11]": {"test": "ADAM10 protease inhibitors, dose response, selectivity assay for ADAM17 exosite inhibitor project, biochemical, FRET peptide substrate, recombinant human ADAM10 (AID 743259);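 further: ADAM10 enzyme cleaving a FRET peptide substrate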"}}, "note": "Active and inactive are the calls of the source.", "data": [{"smiles": "CN1CCN(C(c2cccnc2)c2ccc3cccnc3c2O)CC1", "note": "(stereo unspecified)", "values": [{"measurement": "EC50", "setting": "[1]", "result": "> 160 µM (inactive)"}, {"measurement": "EC50", "setting": "[2]", "result": "> 38 µM (not active)"}, {"measurement": "IC50", "setting": "Estrogen receptor beta", "result": "32.6 µM (not active)"}]}, {"smiles": "COC(=O)C1=C(C(=O)OC)SC(=C2C(=S)C(C)(C)N(C(=O)CC(C)C)c3ccccc32)S1", "values": [{"measurement": "CC50", "setting": "Vero", "result": "49.5 µM (active)"}]}, {"smiles": "O=C(Nc1nc2cc3c(cc2s1)OCCO3)c1ccco1", "values": [{"measurement": "EC50", "setting": "[3]", "result": "19.5 µM (active)"}, {"measurement": "EC50", "setting": "Streptokinase A", "result": "> 150 µM (not active)"}, {"measurement": "IC50", "setting": "[4]", "result": "7.91 µM (active)"}, {"measurement": "EC50", "setting": "Streptococcus", "result": "53.5 µM (active)"}, {"measurement": "AC50", "setting": "[5]", "result": "12.9 µM (active)"}, {"measurement": "AC50", "setting": "[6]", "result": "28.5 µM (active)"}, {"measurement": "AC50", "setting": "[7]", "result": "1.12 µM (active)"}, {"measurement": "AC50", "setting": "[8]", "result": "1.07 µM (active)"}, {"measurement": "AC50", "setting": "[9]", "result": "45.4 µM (active)"}]}, {"smiles": "CCOC(=O)c1cc(OC(=O)c2ccccc2OC)n(-c2ccccc2)n1", "values": [{"measurement": "IC50", "setting": "Ephrin type-A receptor 4", "result": "19.7 µM (active)"}, {"measurement": "IC50", "setting": "[10]", "result": "> 69.5 µM (inactive)"}, {"measurement": "IC50", "setting": "[11]", "result": "> 69.5 µM (inactive)"}]}]}
